Reference: patent US6814960B1, “Hydroxystilbene compounds used as microbicidal active substances” (Ciba Specialty Chemicals Corporation, priority 1998, dated 2004)

What was measured:
Experiment in all cases: MIC value in microtitre plates (optical density)
Assay type in all cases: cell-based
[1] = system: Aspergillus niger ATCC 6275; details: microtitre plate, Sabouraud 2% glucose bouillon, 5 days at 28° C., optical density 620 nm, ≦20% growth; some data indicative values
Procedure: (§1) Determination of the Minimum Inhibiting Concentration (MIC Value) in Microtitre Plates
(§2) Casein/soybean flour peptone bouillon for the preparation of the precultures of the test bacteria and yeast.
(§3) Mycological slant agar for the preculture of moulds.
(§4) Examples of Test Organisms
(§5) The test substances are predissolved in dimethyl sulfoxide (DMSO) and tested in a serial dilution of 1:2.
(§6) Bacteria and yeast are cultured overnight in CASO bouillon, the mould on mycological slant agar and rinsed off with 10 ml of 0.85% sodium chloride solution (+0.1% TritonX-100).
(§7) All test organisms are adjusted to an organism count of 1.5×10^6 CFU/ml with 0.85% sodium chloride solution.
(§8) The test substances are prepipetted into microtitre plates in an amount of 8 μl per well.
(§9) Previously diluted organism substances are diluted 1:100 in CASO bouillon (bacteria and yeast) and Sabouraud 2% glucose bouillon (mould) and added to the test substances in an amount of 192 μl per well.
(§10) The test batches are incubated for 48 hours at 37° C. (bacteria and yeast) or for 5 days at 28° C. (mould).
(§11) After incubation, the growth is determined by reference to the turbidity of the test batches (optical density) at 620 nm in a microplate reader.
(§12) The minimum inhibiting concentration (MIC value) is the concentration of substance at which (compared with the growth control) an appreciable inhibition of the growth (≦20% growth) of the test organisms is ascertained.
(§13) One microtiter plate is used for each test organism and substance concentration. All substances tested in duplicate.

[2] = system: Candida albicans ATCC 10231; details: microtitre plate, CASO bouillon, 48 hours at 37° C., optical density 620 nm, ≦20% growth; some data indicative values
Procedure: as §1, §2, §3, §4, §5, §6, §7, §8, §9, §10, §11, §12, §13

[3] = system: Escherichia coli NCTC 8196; details: microtitre plate, CASO bouillon, 48 hours at 37° C., optical density 620 nm, ≦20% growth; some data indicative values
Procedure: as §1, §2, §3, §4, §5, §6, §7, §8, §9, §10, §11, §12, §13

[4] = system: Pseudomonas aeruginosa CIP A-22; details: microtitre plate, CASO bouillon, 48 hours at 37° C., optical density 620 nm, ≦20% growth; some data indicative values
Procedure: as §1, §2, §3, §4, §5, §6, §7, §8, §9, §10, §11, §12, §13

[5] = system: Staphylococcus hominis DSM 20328; details: microtitre plate, CASO bouillon, 48 hours at 37° C., optical density 620 nm, ≦20% growth; some data indicative values
Procedure: as §1, §2, §3, §4, §5, §6, §7, §8, §9, §10, §11, §12, §13

SMILES | MIC values A. niger [1] [ppm] | MIC values C. albicans [2] [ppm] | MIC values E. coli [3] [ppm] | MIC values P. aeruginosa [4] [ppm] | MIC values S. heminis [5] [ppm]
COc1ccc(/C=C/c2ccc(O)cc2)cc1 [Comp. of formula 131] | >100 | >100 | >100 | >100 | >100
COc1ccc(/C=C/c2cccc(O)c2)cc1 [Comp. of formula 132] | >100 | >100 | >100 | >100 | >100
COc1ccc(/C=C/c2ccc(OC)c(O)c2)cc1 [Comp. of formula 133] | >100 | >100 | >100 | >100 | >100
CCOc1cc(/C=C/c2ccc(OC)cc2)ccc1O [Comp. of formula 134] | >100 | >100 | >100 | >100 | >100
COc1ccc(/C=C/c2ccc(O)c(OC)c2)cc1 [Comp. of formula 135] | >100 | >100 | >100 | >100 | >100
COc1ccc(/C=C/c2ccccc2O)cc1 [Comp. of formula 137] | >100 | >100 | 100 | >100 | >100
COc1ccc(/C=C/c2cc(O)c(OC)c(OC)c2)cc1 [Comp. of formula 138] | >100 | >100 | >100 | >100 | >100
COc1ccc(/C=C/c2cccc(C)c2O)cc1 [Comp. of formula 140] | 100 | >100 | >100 | >100 | >100
Oc1ccc(/C=C/c2ccc(-c3ccccc3)cc2)cc1 [Comp. of formula 143] | >100 | >100 | >100 | >100 | >100
Oc1cccc(/C=C/c2ccc(-c3ccccc3)cc2)c1 [Comp. of formula 145] | >100 | >100 | >100 | >100 | >100
COc1ccc(/C=C/c2ccc(-c3ccccc3)cc2)cc1O [Comp. of formula 146] | >100 | >100 | >100 | >100 | >100
CCOc1cc(/C=C/c2ccc(-c3ccccc3)cc2)ccc1O [Comp. of formula 147] | >100 | >100 | >100 | >100 | >100
COc1cc(/C=C/c2ccc(-c3ccccc3)cc2)ccc1O [Comp. of formula 148] | >100 | >100 | >100 | >100 | >100
Oc1ccccc1/C=C/c1ccc(-c2ccccc2)cc1 [Comp. of formula 150] | >100 | >100 | >100 | >100 | >100
COc1cc(/C=C/c2ccc(-c3ccccc3)cc2)cc(O)c1OC [Comp. of formula 151] | >100 | >100 | >100 | >100 | >100
Cc1cccc(/C=C/c2ccc(-c3ccccc3)cc2)c1O [Comp. of formula 153] | >100 | >100 | >100 | >100 | >100
Oc1ccc(/C=C/c2cccc3ccccc23)cc1 [Comp. of formula 156] | 30 | 15 | 60 | >100 | 7.5
Oc1cccc(/C=C/c2cccc3ccccc23)c1 [Comp. of formula 157] | 60 | 15 | 15 | >100 | 7.5
COc1ccc(/C=C/c2cccc3ccccc23)cc1O [Comp. of formula 158] | >100 | >100 | >100 | >100 | >100
CCOc1cc(/C=C/c2cccc3ccccc23)ccc1O [Comp. of formula 159] | 100 | >100 | >100 | >100 | >100
COc1cc(/C=C/c2cccc3ccccc23)ccc1O [Comp. of formula 160] | 100 | >100 | >100 | >100 | >100
Oc1ccccc1/C=C/c1cccc2ccccc12 [Comp. of formula 162] | 15 | 30 | 30 | >100 | 7.5
COc1cc(/C=C/c2cccc3ccccc23)cc(O)c1OC [Comp. of formula 163] | 100 | >100 | >100 | >100 | >100
Cc1cccc(/C=C/c2cccc3ccccc23)c1O [Comp. of formula 165] | 100 | >100 | >100 | >100 | 100
Cc1ccccc1/C=C/c1ccc(O)cc1 [Comp. of formula 168] | 30 | 15 | 30 | 100 | 7.5
Cc1ccccc1/C=C/c1cccc(O)c1 [Comp. of formula 169] | 30 | 30 | 60 | 100 | 30
COc1ccc(/C=C/c2ccccc2C)cc1O [Comp. of formula 170] | >100 | >100 | >100 | >100 | >100
